Experimental data as given in US20050130252A1, “Stabilized susceptibility tests of aerobic pathogens” (Wyeth Holdings Corporation, priority 2003, published 2005).
In brackets after ≈: the same amount, converted by molar mass. Where two headings read alike, the source gives them in different places.

Tests used:
[1] = HPLC analysis of early peak formation of tigecycline in water and MHB; format: physicochemical; settings: stored overnight at RT
Description: To test the hypothesis, solutions of tigecycline were prepared in water, fresh MHB and aged MHB. The solutions were stored overnight at RT, then subjected to HPLC analysis to look for degradation of tigecycline. […] This confirmed that the formation of early peak of tigecycline was accelerated in the aged media.
In experiment 1 three experimental test samples were examined for early peak formation of tigecycline. In experiment 2 six experimental test samples were evaluated to determine the early peak of tigecycline which occurs in 24 hours. Results are as listed below:
Tigecycline at a concentration of 1 mg/mL in each of the above vehicles was prepared, assayed at time zero and 1 day @ RT.
The HPLC parameters are listed below: • HPLC column: Luna C18(2), 5 μm, 4.6×150 mm • Detection: UV @ 250 nm • Flow Rate: 1.5 mL/min • Injection volume=30 μL • Mobile Phase A: 6.8 g KH2PO4 in 950 mL water, pH to 6.2 with KOH, mixed with 50 mL acetonitrile • Mobile Phase B: 6.8 g KH2PO4 in 500 mL water, pH to 6.2 with KOH, mixed with 500 mL acetonitrile

[2] = tested on: E. faecalis ATCC 29212; experiment: Broth microdilution MIC; format: cell-based, Enterococcus faecalis; settings: for MIC: Enterococcus faecalis
Description: The process for preparing susceptibility test medium are the following steps: • a. Preparing Mueller Hinton Broth II medium by adding 22 grams powdered media to 1.0 liter distilled water; • b. Autoclaving (121° C., 15 psi, 15 minutes) and cooling the medium; • c. Adding Oxyrase® up to about 10% final volume and keeping at 35-37° C. in an incubator for 30 minutes; • d. Adding about 50 μL to each well of a 96 well microtiter plate; • e. Weighing drug and adding broth to drug to bring up to about (standard 128 μg/ml); • f. Adding 50 μL of the drug to the first column of the titer plate; • g. Diluting by two-fold serial diluting across or down the plate. • h. Preparing a Prompt™ inoculum at 10^8 CFU/ml; • i. Diluting inoculum 1:100 in the broth at […] in 9.9 ml (1:100) is 10^6 colony forming units (CFU) forming the adjusted inoculum; • j. Adding 50 μL of the adjusted inoculum to the wells of the microtiter plate; • k. Incubating the plates at 35-37° C. for 18-22 hours; and • l. Reading, with the unaided eye, the MIC.
(§1) The in vitro activities of tigecycline and control antibiotics were determined by the broth microdilution method as recommended by the NCCLS. (National Committee for Clinical Laboratory Standards, 2003. Methods for Dilution Antimicrobial Susceptibility Tests for Bacteria That Grow Aerobically; Approved Standards: M7-A6, Sixth ed, vol. 23., National Committee for Clinical Laboratory Standards Wayne, Pa.) was used for the standard procedures. MBH with 5% lysed horse blood was used for testing S. pneumoniae and Haemophilus Test Medium was used for testing H. influenzae. Oxyrase® (Oxyrase Inc, Mansfield, Ohio) was used according to the manufacturer's instructions by adding 1 ml of Oxyrase® to 50 ml of media. Media age studies were performed by preparing MHB in multiple flasks, then storing the media under various conditions. MICs were usually performed in duplicate on each day of testing. Storage under anaerobic conditions was conducted in an anaerobic chamber (MACS MG 1000, Don Whitley Scientific LTD). The pH of the media was determined by pH meter (Corning 430). A comparison of the in vitro activity of tigecycline by agar and broth dilution methodolgies with and without Oxyrase® against clinical isolates is shown in Table 1.

[3] = tested on: Staphylococcus aureus GC1131 Clinical isolate; experiment: Agar dilution in vitro activity; format: cell-based; settings: S. aureus GC1131
Description: as §1, with “Oxyrase® (Oxyrase Inc, Mansfield, Ohio) was used according to the manufacturer's instructions by adding 1 ml of Oxyrase® to 50 ml of media.” left out

[4] = Table 8, E. faecalis ATCC 29212, Mueller Hinton Broth + Oxyrase, n = 240
[5] = Table 8, E. faecalis ATCC 29212, Mueller Hinton Broth, n = 320
[6] = Table 9, E. faecalis ATCC 29212, Mueller Hinton Broth + Oxyrase, n = 31
[7] = Table 9, E. faecalis ATCC 29212, Mueller Hinton Broth, n = 96

## CN(C)c1cc(NC(=O)CNC(C)(C)C)c(O)c2c1C[C@H]1C[C@H]3[C@H](N(C)C)C(O)=C(C(N)=O)C(=O)[C@@]3(O)C(O)=C1C2=O [Tigecycline, tigecycline]
[1]; tigecycline solution in aged MHB
  Amount of the early peak (HPLC) relative to the amount in water (ratio): about 35
[1]; tigecycline solution in fresh MHB
  Amount of the early peak (HPLC) relative to the amount in water: about 12 times
[2]; ATCC29212, 0 h, E. faecalis ATCC 29212, Day 0, Pre-prepared media, room temperature, N = 6
  MIC: 0.25 µg/mL (≈ 0.427 µM)
[2]; ATCC29212, 0 h, E. faecalis ATCC 29212, Day 0, media Fresh from Powder 2° C., N = 6
  MIC: 0.03 µg/mL (≈ 0.0512 µM)
[2]; ATCC29212, 0 h, E. faecalis ATCC 29212, Day 0, media Fresh from Powder, room temperature, N = 6
  MIC: 0.03 µg/mL (≈ 0.0512 µM)
[2]; ATCC29212, 24 h, E. faecalis ATCC 29212, Day 1, Pre-prepared media, room temperature, N = 6
  MIC: 0.25 µg/mL (≈ 0.427 µM)
[2]; ATCC29212, 24 h, E. faecalis ATCC 29212, Day 1, media Fresh from Powder 2° C., N = 6
  MIC: 0.03 µg/mL (≈ 0.0512 µM)
[2]; ATCC29212, 24 h, E. faecalis ATCC 29212, Day 1, media Fresh from Powder, room temperature, N = 6
  MIC: 0.03 to 0.06 µg/mL (≈ 0.0512 to 0.102 µM)
[2]; ATCC29212, 168 h, E. faecalis ATCC 29212, Day 7, Pre-prepared media, room temperature, N = 6
  MIC: 0.25 µg/mL (≈ 0.427 µM)
[2]; ATCC29212, 168 h, E. faecalis ATCC 29212, Day 7, media Fresh from Powder 2° C., N = 6
  MIC: 0.06 µg/mL (≈ 0.102 µM)
[2]; ATCC29212, 168 h, E. faecalis ATCC 29212, Day 7, media Fresh from Powder, room temperature, N = 6
  MIC: 0.12 to 0.25 µg/mL (≈ 0.205 to 0.427 µM)
[2]; ATCC29212, 336 h, E. faecalis ATCC 29212, Day 14, Pre-prepared media, room temperature, N = 6
  MIC: 0.25 to 0.5 µg/mL (≈ 0.427 to 0.854 µM)
[2]; ATCC29212, 336 h, E. faecalis ATCC 29212, Day 14, media Fresh from Powder 2° C., N = 6
  MIC: 0.25 µg/mL (≈ 0.427 µM)
[2]; ATCC29212, 336 h, E. faecalis ATCC 29212, Day 14, media Fresh from Powder, room temperature, N = 6
  MIC: 0.25 µg/mL (≈ 0.427 µM)
[2]; ATCC29212, 336 h, read-out: Minimal Inhibitory Concentration, E. faecalis ATCC29212, media Aged Aerobic (2 weeks at RT under room air), N = 4
  MIC: 0.25 µg/mL (≈ 0.427 µM)
[2]; ATCC29212, 504 h, E. faecalis ATCC 29212, Day 21, Pre-prepared media, room temperature, N = 6
  MIC: 0.25 to 0.5 µg/mL (≈ 0.427 to 0.854 µM)
[2]; ATCC29212, 504 h, E. faecalis ATCC 29212, Day 21, media Fresh from Powder 2° C., N = 6
  MIC: 0.25 µg/mL (≈ 0.427 µM)
[2]; ATCC29212, 504 h, E. faecalis ATCC 29212, Day 21, media Fresh from Powder, room temperature, N = 6
  MIC: 0.25 µg/mL (≈ 0.427 µM)
[2]; ATCC29212, 672 h, E. faecalis ATCC 29212, Day 28, Pre-prepared media, room temperature, N = 6
  MIC: 0.25 to 0.5 µg/mL (≈ 0.427 to 0.854 µM)
[2]; ATCC29212, 672 h, E. faecalis ATCC 29212, Day 28, media Fresh from Powder 2° C., N = 6
  MIC: 0.12 to 0.25 µg/mL (≈ 0.205 to 0.427 µM)
[2]; ATCC29212, 672 h, E. faecalis ATCC 29212, Day 28, media Fresh from Powder, room temperature, N = 6
  MIC: 0.12 to 0.25 µg/mL (≈ 0.205 to 0.427 µM)
[2]; ATCC29212, read-out: Minimal Inhibitory Concentration (modal value), E. faecalis ATCC29212, Aged Media + Oxyrase, N = 8
  MIC: 0.12 µg/mL
[2]; ATCC29212, read-out: Minimal Inhibitory Concentration (modal value), E. faecalis ATCC29212, Aged media, N = 8
  MIC: 0.5 µg/mL (≈ 0.854 µM)
[2]; ATCC29212, read-out: Minimal Inhibitory Concentration (modal value), E. faecalis ATCC29212, Fresh Media + Oxyrase, N = 8
  MIC: 0.06 µg/mL
[2]; ATCC29212, read-out: Minimal Inhibitory Concentration (modal value), E. faecalis ATCC29212, Freshly Prepared Media, N = 8
  MIC: 0.06 to 0.12 µg/mL (≈ 0.102 to 0.205 µM)
[2]; ATCC29212, read-out: Minimal Inhibitory Concentration, E. faecalis ATCC 29212, 2% Oxyrase
  MIC: 0.03 µg/mL (≈ 0.0512 µM)
[2]; ATCC29212, read-out: Minimal Inhibitory Concentration, E. faecalis ATCC29212, Aged Media + Oxyrase, N = 8
  MIC: 0.12 µg/mL
[2]; ATCC29212, read-out: Minimal Inhibitory Concentration, E. faecalis ATCC29212, Aged media, N = 8
  MIC: 0.25 to 0.5 µg/mL (≈ 0.427 to 0.854 µM)
[2]; ATCC29212, read-out: Minimal Inhibitory Concentration, E. faecalis ATCC29212, Commercially Prepared media, N = 4
  MIC: 0.12 to 0.25 µg/mL (≈ 0.205 to 0.427 µM)
[2]; ATCC29212, read-out: Minimal Inhibitory Concentration, E. faecalis ATCC29212, Fresh Media + Oxyrase, N = 8
  MIC: 0.06 µg/mL
[2]; ATCC29212, read-out: Minimal Inhibitory Concentration, E. faecalis ATCC29212, Freshly Prepared Media, N = 8
  MIC: 0.06 to 0.12 µg/mL (≈ 0.102 to 0.205 µM)
[2]; ATCC29212, read-out: Minimal Inhibitory Concentration, E. faecalis ATCC29212, Freshly Prepared media, N = 4
  MIC: 0.03 µg/mL (≈ 0.0512 µM)
[2]; ATCC29212, read-out: Minimal Inhibitory Concentration, E. faecalis ATCC 29212, MHB II + 0.05% Catalase
  MIC: 0.5 µg/mL
[2]; ATCC29212, read-out: Minimal Inhibitory Concentration, E. faecalis ATCC 29212, MHB II + 0.05% L-ascorbic Acid
  MIC: 1 µg/mL
[2]; ATCC29212, read-out: Minimal Inhibitory Concentration, E. faecalis ATCC 29212, MHB II + 0.05% L-cysteine
  MIC: 0.12 µg/mL
[2]; ATCC29212, read-out: Minimal Inhibitory Concentration, E. faecalis ATCC 29212, MHB II + 0.05% Sodium Pyruvate
  MIC: 0.25 µg/mL
[2]; ATCC29212, read-out: Minimal Inhibitory Concentration, E. faecalis ATCC 29212, MHB II + 0.05% Thioglycolate
  MIC: 0.12 µg/mL
[2]; ATCC29212, read-out: Minimal Inhibitory Concentration, E. faecalis ATCC 29212, MHB II + 2% Oxyrase
  MIC: 0.03 to 0.06 µg/mL
[2]; ATCC29212, read-out: Minimal Inhibitory Concentration, E. faecalis ATCC 29212, Mueller Hinton Broth II (Fresh)
  MIC: 0.06 to 0.12 µg/mL (≈ 0.102 to 0.205 µM)
[2]; ATCC29212, read-out: Minimal Inhibitory Concentration, E. faecalis ATCC 29212, No Oxyrase
  MIC: 0.25 µg/mL (≈ 0.427 µM)
[2]; ATCC29212, read-out: Minimal Inhibitory Concentration, E. faecalis ATCC29212, media Aged Anaerobic, N = 4
  MIC: 0.03 µg/mL (≈ 0.0512 µM)
[2]; [4]
  Number of Occurrences of MIC 0.03 ug/ml: 5
  Number of Occurrences of MIC 0.06 ug/ml: 203
  Number of Occurrences of MIC 0.12 ug/ml: 28
  Number of Occurrences of MIC 0.25 ug/ml: 2
  Number of Occurrences of MIC 0.5 ug/ml: 1
  Number of Occurrences of MIC 1 ug/ml: 1
[2]; [5]
  Number of Occurrences of MIC 0.06 ug/ml: 1
  Number of Occurrences of MIC 0.12 ug/ml: 96
  Number of Occurrences of MIC 0.25 ug/ml: 140
  Number of Occurrences of MIC 0.5 ug/ml: 16
  Number of Occurrences of MIC 1 ug/ml: 64
  Number of Occurrences of MIC 2 ug/ml: 3
[2]; [6]
  Number of Occurrences of MIC 0.03 ug/ml: 6
  Number of Occurrences of MIC 0.06 ug/ml: 14
  Number of Occurrences of MIC 0.12 ug/ml: 11
[2]; [7]
  Number of Occurrences of MIC 0.12 ug/ml: 25
  Number of Occurrences of MIC 0.25 ug/ml: 52
  Number of Occurrences of MIC 0.5 ug/ml: 19
[3]; Oxyrase (10%)
  In Vitro Activity of Tigecycline: 0.25
[3]; no Oxyrase
  In Vitro Activity of Tigecycline: 0.25
